Measured values: patent publication US11427588B2, “Compositions and methods for treating neurodegenerative diseases and cardiomyopathy” (THE REGENTS OF THE UNIVERSITY OF CALIFORNIA, priority 2013, dated 2022)
Entries after “also recorded” stand apart in the source; their conditions may differ. Read-outs that look alike come from different tables or passages of the source.

Experiments:
SH-SY5Y cells = experiment: H2O2 induced apoptosis, Annexin V / PI FACS assay; assay type: cell-based, human; conditions: for total amount of apoptotic cells: 50 μM for 96 hours, then 400 μM H2O2 for 24 hours
Method: Apoptosis assays and PINK1 shRNA: SH-SY5Y cells (ATCC) were cultured in 1:1 mix of F12K and DMEM supplemented with 20% FBS. PINK1 shRNA lentivirus were produced using a pLKO.1 based shRNA (Sigma) by contransfection with Δ8.9 and pMGD2 vectors in HEK293T cells. SH-SY5Y cells were infected with lentivirus followed by selection with puromycin ([…]). […] Subsequently, cells were stained with Annexin V-FITC and PI and analyzed (FACS Diva) on a FACS LSRII Cytometer ([…]) Apoptosis was calculated as the difference between H2O2 treated samples and the respective control.
Overexpression of PINK1 in neuronal cells (e.g. dopaminergic (DA)) promotes survival in response to oxidative stress and other mitochondrial toxins^7. Before testing the effects of kinetin on apoptosis, we treated DA neurons with 50 μM of either kinetin or adenine and measured cell density after 10 days. […] SH-SY5Y cells were treated with 50 μM kinetin, adenine or DMSO for 96 hours, followed by 400 μM H2O2 treatment for additional 24 hours. Using a cytometry-based FACS assay involving cellular annexin V and propidium iodide staining, we determined the percentage of apoptotic cells after treatment with DMSO, adenine or kinetin.

[1] = test system: PINK1^G309D mutant expressing cells; experiment: Parkin S65 phosphorylation after CCCP, phospho specific antibodies after immuno-precipitating Parkin; assay type: cell-based; conditions: S65 phosphosite
Method: (§1) Parkin phosphorylation and mitochondrial translocation assay: HeLa cells were grown in DMEM supplemented with 10% FBS. Log phase cells were plated in 24 well plates with glass coverslips (Mattek) pretreated with fibronectin. Cells were pretreated with 50 μM of the indicated compound, followed by transfection with MitoGFP, mCherry Parkin, and full length PINK1FLAG3 in a 1:4:2 ratio using Fugene 6 (Promega). Fields of cells were selected by expression of MitoGFP (6 fields/well-3 wells/condition) and imaged at five-minute intervals following depolarization with 5 μM CCCP. Quantification was performed according to published protocols^3 and by creation of a Matlab based script.
To test the PINK1-dependency of our findings, we assayed PINK1 activity by using phospho specific antibodies raised against Parkin's PINK1-specific S65 phosphosite^21 after immuno-precipitating Parkin. […] To test whether kinetin stimulated Parkin localization was due to reversible binding of kinetin to PINK1, we treated the cells with fresh medium for 96 hours before performing a new recruitment assay. Similar recruitment rates were observed following the washout (FIG. 2F). […] We followed previously published methods to calculate the percentage of GFP labeled mitochondria with mCherryParkin associated. […]

PINK1−/− mice = experiment: Induced myocardial infarction model; assay type: in vivo
Method: Utilizing mice dosed with kinetin, adenine or vehicle for two weeks, we induced myocardial infarction by ligating the left anterior descending artery at the level of the left atrial appendage (Wang et al., 2006) or sham surgery. Following infarct for 24 or 72 hours, we sacrificed the mice and analyzed the heart by TUNEL staining as cardiomyocytes are susceptible to cell death following infarct. […] These experiments replicate our results in neurons in which kinetin treatment will block apoptosis in response to a number of cellular stressors.

HeLa cells = experiment: Parkin recruitment to depolarized mitochondria in HeLa cells, PINK1 form not stated; assay type: cell-based
Method: as §1
Our ability to enhance PINK1 activity in-vitro using KTP led us to investigate means by which to achieve enhanced activity in cells expressing PINK1. […] We treated cells with either kinetin or adenine (FIG. 2A) and measured Parkin localization following mitochondrial depolarization with CCCP (FIG. 2B). HeLa cells, which have low levels of endogenous PINK1 and PARKIN, were transfected with wildtype or PINK1^G309D, mCherryParkin, and mitoGFP. After 48 hours of incubation with 25 μM adenine, kinetin or equivalent DMSO, we imaged CCCP-mediated depolarization of mitochondria (FIGS. 2C, 2D) and calculated the percentage of GFP labelled mitochondria with mCherryParkin associated (FIG. 2E). […]

[2] = test system: C57 (PINK1 wildtype) derived hippocampal neurons; experiment: Mitochondrial motility assay in axons; assay type: cell-based, mouse
Source text: (§2) Mitochondrial motility assay: Primary hippocampal neuronal cultures were co-transfected with mitochondrial targeted GFP (mitoGFP) and mCherry-tagged synaptophysin (mCherrySynaptophysin) to allow for the live identification of mitochondria in axons.
(§3) To test if kinetin decreases motility we examined the mobility of axonal mitochondria in hippocampal neurons. Primary hippocampal neuronal cultures were co-transfected with mitoGFP and mCherry-tagged Synaptophysin (mCherrySynaptophysin) to allow for the live identification of mitochondria in axons. […] To test the PINK1 dependency of this process, we treated control mouse C57 (PINK1 wildtype) and PINK1 knockout derived hippocampal neurons with kinetin or 9MK and imaged their mitochondria.

[3] = test system: PINK1 knockout derived hippocampal neurons; experiment: Mitochondrial motility assay in axons; assay type: cell-based, mouse
Source text: as §2, §3

Compound | total amount of apoptotic cells (SH-SY5Y cells) | phosphorylation levels of Parkin [1] | scar size and level of collagen deposition (PINK1−/− mice) | Parkin recruitment to CCCP depolarized mitochondria (HeLa cells) | mitochondrial motility [2] | mitochondrial motility [3] | mitochondrial motility ([3]; listed as Kinetin) | total amount of apoptotic cells (SH-SY5Y cells; listed as Kinetin) | total number of apoptotic cells (SH-SY5Y cells; 48 hours of treatment, then 24 hours of 400 uM hydrogen peroxide)
Nc1ncnc2nc[nH]c12 [adenine, reference compound] | no significant change | not | not | – | – | – | – | – | –
c1coc(CNc2ncnc3[nH]cnc23)c1 [kinetin] | significant decrease; also recorded: blocks apoptosis | significantly increased; also recorded: Robust increase | not | accelerates | decrease in motility | no change in motility | no effect on mitochondrial motility | blocks apoptosis | Decrease in the total number of apoptotic cells
